Laboratory results as given in PMC11969548 (2025).
Each block holds one molecule with its values, some of them ahead of it.

Key:
[1] = tested on: P27 (DD aptagel) (DNA, aptamer) CGACCGAGGGTACCGCAATAGTACTTA/TTGTTCGCCTATTGTGGGTCGGGTCG; assay: angular SPR of hydrogel film; details: PBS, 2 mM Mg2+, 200-fold diluted rat plasma, 37 °C
[2] = tested on: P27 (monolayer) (DNA, aptamer) CGACCGAGGGTACCGCAATAGTACTTA/TTGTTCGCCTATTGTGGGTCGGGTCG; assay: SPR, dissociation phase fit; details: PBS, 2 mM Mg2+, pH 7.4, 37 °C, split 2 in solution, independent of analyte concentration
[3] = tested on: P27.i (monolayer) (DNA, aptamer) CGACCGAGGGTACCGCAATAGTACTTA/TTGTTCGCCTATTGCGGGTCGGGTCG; assay: SPR, dissociation phase fit; details: PBS, 2 mM Mg2+, pH 7.4, 37 °C, split 2 in solution, independent of analyte concentration
[4] = tested on: P27 (DD aptagel) (DNA, aptamer) CGACCGAGGGTACCGCAATAGTACTTA/TTGTTCGCCTATTGTGGGTCGGGTCG; assay: angular SPR of hydrogel film, dissociation phase fit; details: PBS, 2 mM Mg2+; pH 7.4, 37 °C; vancomycin below 50 µM; rises to 0.7 above 100 µM; apparent
[5] = tested on: P27 (MM aptagel) (DNA, aptamer) CGACCGAGGGTACCGCAATAGTACTTA/TTGTTCGCCTATTGTGGGTCGGGTCG; assay: angular SPR and QCM-D of hydrogel film; details: PBS, 2 mM Mg2+; 37 °C; 1 mM vancomycin; 1 mM aptamer; reversible; smallest response
[6] = tested on: PolyA (PA) aptagel (DNA, single strand) AAAAAAAAAAAAAAAAAAAAAAAAAAA; assay: angular SPR of hydrogel film; details: PBS, 2 mM Mg2+; 37 °C; 1 mM vancomycin; 3 mM poly A, [ene]/[SH] 4
[7] = tested on: Full (full-length parent aptamer, aptagel) (DNA, aptamer) CGACCGAGGGTACCGCAATAGTACTTATTGTTCGCCTATTGTGGGTCGGGTCG; assay: angular SPR and QCM-D of hydrogel film; details: PBS, 2 mM Mg2+; 37 °C; 1 mM vancomycin; 1 mM aptamer; partly irreversible
[8] = tested on: P27 (MD aptagel) (DNA, aptamer) CGACCGAGGGTACCGCAATAGTACTTA/TTGTTCGCCTATTGTGGGTCGGGTCG; assay: angular SPR and QCM-D of hydrogel film; details: PBS, 2 mM Mg2+; 37 °C; 1 mM vancomycin; 1 mM aptamer; reversible
[9] = concentration matching refractive index of 10 µM vancomycin

binding [1, 9]: no
Structure (SMILES): CC1(C)S[C@@H]2[C@H](NC(=O)[C@H](N)c3ccccc3)C(=O)N2[C@H]1C(=O)O

koff [2]: 0.0033 s⁻¹
koff [3]: ~ 0.16 min^-1
koff [4]: ~ 0.2 min^-1
binding [5]: weak
binding [6]: no
binding [7]: yes
binding [8]: yes
Structure (SMILES): CN[C@H](CC(C)C)C(=O)N[C@H]1C(=O)N[C@@H](CC(N)=O)C(=O)N[C@H]2C(=O)N[C@H]3C(=O)N[C@H](C(=O)N[C@H](C(=O)O)c4cc(O)cc(O)c4-c4cc3ccc4O)[C@H](O)c3ccc(c(Cl)c3)Oc3cc2cc(c3O[C@@H]2O[C@H](CO)[C@@H](O)[C@H](O)[C@H]2O[C@H]2C[C@](C)(N)[C@H](O)[C@H](C)O2)Oc2ccc(cc2Cl)[C@H]1O

binding [1, 9]: no
Structure (SMILES): CO[C@H]1/C=C/O[C@@]2(C)Oc3c(C)c(O)c4c(O)c(c(/C=N/N5CCN(C)CC5)c(O)c4c3C2=O)NC(=O)/C(C)=C\C=C\[C@H](C)[C@H](O)[C@@H](C)[C@@H](O)[C@@H](C)[C@H](OC(C)=O)[C@@H]1C

binding ([1]; 80 µM glucose): no
Structure (SMILES): OC[C@H]1OC(O)[C@H](O)[C@@H](O)[C@@H]1O (stereo partly shown)
